Measurements: BigSolDB 2.1

C[n+]1ccn(CCOCCn2cc[n+](C)c2)c1.F[P-](F)(F)(F)(F)F.F[P-](F)(F)(F)(F)F
solubility (mole fraction)
Conditions | in acetone | in acetonitrile | in ethanol | in methanol | in water
283 K | 0.0599 | 0.0726 | 3.2e-05 | 0.000171 | 0.000118
288 K | 0.061 | 0.0749 | 3.8e-05 | 0.000234 | 0.000157
293 K | 0.0621 | 0.0775 | 4.7e-05 | 0.000298 | 0.00021
298 K | 0.0631 | 0.0802 | 5.6e-05 | 0.000376 | 0.000271
303 K | 0.0641 | 0.0834 | 6.9e-05 | 0.000464 | 0.000345
